# According to US20230255939A1, “Antimicrobial Agent for Non-Human Animal” (ISHIHARA SANGYO KAISHA, LTD, priority 2020, published 2023):
# Experiments:
# [1] = tested on: Malassezia pachydermatis (ATCC14522 strain); assay: Malassezia otitis externa effect test (dog) (Test Example 3); type: in vivo, dog (Beagle); design: Total score (redness, earwax, itching, rash) Immediately before treatment / Total score (redness, earwax, itching, rash) 7 Days after treatment: scale not given here; details: for Microbial count (cfu/ml) 7 Days after treatment: 500 ppm agent solution for 1 minute; for Microbial count (cfu/ml) Immediately before treatment: baseline before 500 ppm agent solution; for Total score (redness, earwax, itching, rash) 7 Days after treatment: 5 mL of 500 ppm agent solution for 1 minute; for Improvement rate (%) of microbial count / Improvement rate (%) of symptom total score: 500 ppm for 1 minute, 7 days after treatment; for Total score (redness, earwax, itching, rash) Immediately before treatment: baseline 7 days after inoculation, before 500 ppm agent solution
# Description: Test Example 3: Malassezia Otitis Externa Effect Test (Dog) Test Variety: Beagle (19 to 20-Month-Old)
# Test Microbial Strain: Malassezia Pachydermatis (ATCC14522 Strain)
# A colony of the Malassezia microbe pre-cultured (7 days, 30° C.) on a Sabouraud agar medium was suspended in sterilized physiological saline (microbial concentration of 1.0 × 10^6 cells/mL), and 0.1 mL of the resulting suspension was inoculated into both ears of the test animal. 7 Days after the inoculation, both ears were filled with 5 mL of an agent solution (sterilized physiological saline solution supplemented with 5% DMSO) prepared to have a concentration of the test compound of 500 ppm, and after 1 minute, thoroughly washed with sterilized physiological saline solution.
# At the same time, the number of the Malassezia microbe present inside the ears of the sample was also investigated by the following method.
# The surface of the ear canal was scraped three times using a cotton swab to collect the microbe, and the collected microbe was suspended in 1 mL of PBS (containing 8 g of sodium chloride, 2.9 g of disodium hydrogen phosphate, 0.2 g of potassium chloride, and 0.2 g of potassium dihydrogen phosphate in 1000 mL) supplemented with 1% v/v of Tween80 (polyoxyethylene sorbitan monooleate: manufactured by Kanto Chemical Co., Ltd.) together with the cotton swab. The resulting suspension was serially diluted 10-fold with the PBS, and 0.1 mL thereof was applied to a CHROMagar Malassezia/Candida medium (trade name; peptone, special enzyme substrate mixture, chloramphenicol, olive oil, agar) and cultured at 30° C. for 4 days. After that, the colonies having a pink to purple color were counted, the microbial count score was calculated, and the improvement rate was determined.
# [2] = tested on: Malassezia pachydermatis (IFM56528); assay: Antifungal activity test, fungicidal concentration after 1 minute contact (Test Examples 10-1 and 10-2); type: cell-based; details: for half fungicidal concentration MFC50: M. pachydermatis IFM56528, colony formation inhibition rate of 50%; for 90% fungicidal concentration MFC90: M. pachydermatis IFM56528, colony formation inhibition rate of 90%; for MFC: Malassezia pachydermatis, 1 min, M. pachydermatis IFM56528, no colony growth, read-out: Minimum fungicidal concentration MFC100
# Description: Test Example 10-1: Antifungal Activity Test
# Test Compound: Compound No. 6
# Test Microbial Strain: Malassezia Pachydermatis (IFM56528)
# The Malassezia microbe (Malassezia pachydermatis) cultured for 5 to 7 days in a Sabouraud medium (1% peptone, 4% dextrin, 1.5% agar) was suspended in physiological saline, and a suspension thereof was prepared in such a way as to have an absorbance of 0.025 at 600 nm. Thereto, the test compound dissolved in DMSO was added in such a way as to provide a final concentration of 70, 65, 64, 60, 55, 45, 40, 35, 32, 20, 18, or 8 ppm, and after 1 minute, 10 µL of the suspension and 10 mL of physiological saline were placed in a syringe and stirred, and the syringe was connected to a 37 mm Quality Monitor (manufactured by Pall Corporation) followed by filtration and washing. The membrane filter was impregnated as it was with the Sabouraud medium and subjected to culturing at 32° C. for 72 hours, the presence or absence of colony growth was investigated, and the concentration at which there was no colony growth was determined as the minimum fungicidal concentration (MFC100). When there was colony growth, the number of colonies formed there (the number of colonies in the inventive plot) and the number of colonies in a solvent to which the test compound was not added (the number of colonies in the non-agent treated plot) were measured, the colony formation inhibition rate (%) was determined according to the following expression, and the concentration showing a colony formation inhibition rate of 90% was determined as the 90% fungicidal concentration (MFC90), and the concentration showing a colony formation inhibition rate of 50% was determined as half fungicidal concentration (MFC50).
# Colony formation inhibition rate (%) = [(number of colonies in non-agent treated plot - number of colonies in inventive plot)/number of colonies in non-agent treated plot] × 100
# Test Example 10-2: Antifungal Activity Test
# Test Compound: Compound No. 1
# The Malassezia microbe (Malassezia pachydermatis) cultured for 5 to 7 days in a Sabouraud medium (1% peptone, 4% dextrin, 1.5% agar) was suspended in physiological saline, and a suspension thereof was prepared in such a way as to have an absorbance of 0.025 at 600 nm. Thereto, the test compound dissolved in DMSO was added in such a way as to provide a final concentration of 500, 250, 200, 190, 180, 170, 160, 150, 140, 130, 125, 120, 110, 100, 90, 80, 70, or 64 ppm, and after 1 minute, 10 µL of the suspension and 10 mL of physiological saline were placed in a syringe and stirred, and the syringe was connected to a 37 mm Quality Monitor (manufactured by Pall Corporation) followed by filtration and washing. The membrane filter was impregnated as it was with the Sabouraud medium and subjected to culturing at 32° C. for 72 hours, the presence or absence of colony growth was investigated, and the concentration at which there was no colony growth was determined as the minimum fungicidal concentration (MFC100). When there was colony growth, the number of colonies formed there (the number of colonies in the inventive plot) and the number of colonies in a solvent to which the test compound was not added (the number of colonies in the non-agent treated plot) were measured, the colony formation inhibition rate (%) was determined according to the following expression, and the concentration showing a colony formation inhibition rate of 90% was determined as the 90% fungicidal concentration (MFC90), and the concentration showing a colony formation inhibition rate of 50% was determined as half fungicidal concentration (MFC50).
Compound,Microbial count (cfu/ml) 7 Days after treatment ([1]; left ear canal swab) [cfu/ml],Microbial count (cfu/ml) Immediately before treatment ([1]; left ear canal swab),"Total score (redness, earwax, itching, rash) 7 Days after treatment ([1]; left ear)",Improvement rate (%) of microbial count ([1]; left ear) [%],Improvement rate (%) of symptom total score ([1]; left ear) [%],"Total score (redness, earwax, itching, rash) Immediately before treatment ([1]; left ear)",Microbial count (cfu/ml) 7 Days after treatment ([1]; right ear canal swab) [cfu/ml],Microbial count (cfu/ml) Immediately before treatment ([1]; right ear canal swab),"Total score (redness, earwax, itching, rash) 7 Days after treatment ([1]; right ear)",Improvement rate (%) of microbial count ([1]; right ear) [%],Improvement rate (%) of symptom total score ([1]; right ear) [%],"Total score (redness, earwax, itching, rash) Immediately before treatment ([1]; right ear)",half fungicidal concentration MFC50 [2] [ppm],90% fungicidal concentration MFC90 [2] [ppm],MFC [2] [µg/mL]
"Cc1ccc(-c2nc(C#N)[nH]c2Cl)cc1Cl [Compound No. 6, 5-chloro-4-(3-chloro-4-methylphenyl)-1H-imidazole-2-carbonitrile]",20,"5,300 cfu/ml",0,99.6,100,3,20,"2,800 cfu/ml",0,99.3,100,3,8,20,40
"Cc1ccc(-c2nc(C#N)[nH]c2Cl)cc1 [Compound No. 1, 5-Chloro-4-(4-methylphenyl)-1H-imidazole-2-carbonitrile]",30,900 cfu/ml,1,96.7,67,3,30,"1,300 cfu/ml",1,97.7,67,3,64,130,160
